# In US4734492A, “Macrolide antibiotic M 119” (Kirin Beer Kabushiki Kaisha, priority 1985, dated 1988):
# Like-named read-outs stand apart in the source and are kept apart here.
# Columns and labels:
# Solubility = format: physicochemical
# [1] = test system: Staphylococcus aureus MS 15009 (pI258) Mac^r; test: MIC by agar dilution method; format: cell-based
# From the text: (§1) Also shown in the same table are the MIC's obtained for josamycin (JM) and erythromycin (EM) as controls.
# (§2) Note: "Mac^r " stands for a constitutive macrolide resistant
# [2] = test system: Staphylococcus aureus MS 12917 Mac^r; test: MIC by agar dilution method; format: cell-based
# From the text: as §1, §2
# [3] = test system: Micrococcus luteus ATCC 9341 (MS-1); test: MIC by agar dilution method; format: cell-based; conditions: ATCC9341
# From the text: as §1
# [4] = test system: Proteus morganii IFO 3848 (MS-1); test: MIC by agar dilution method; format: cell-based; conditions: Morganella morganii, IFO3848
# From the text: as §1
# [5] = test system: Salmonella typhi 901 (MS-1); test: MIC by agar dilution method; format: cell-based; conditions: Salmonella enterica
# From the text: as §1
# [6] = test system: Staphylococcus aureus Terajima (MS-1); test: MIC by agar dilution method; format: cell-based
# From the text: as §1
# [7] = test system: Staphylococcus aureus MS 353 (MS-1); test: MIC by agar dilution method; format: cell-based
# From the text: as §1
# [8] = test system: Salmonella schottmuelleri 8006 (MS-1); test: MIC by agar dilution method; format: cell-based
# From the text: as §1
# [9] = test system: Salmonella enteritidis G 14 (MS-1); test: MIC by agar dilution method; format: cell-based; conditions: Salmonella enterica
# From the text: as §1
# Mycoplasma pneumoniae = test: MIC by agar dilution method; format: cell-based
# From the text: as §1
# [10] = test system: Proteus rettgeri IFO 3850 (MS-1); test: MIC by agar dilution method; format: cell-based; conditions: Providencia rettgeri, IFO3850
# From the text: as §1
# [11] = test system: Escherichia coli K12 C600 (MS-1); test: MIC by agar dilution method; format: cell-based; conditions: E. coli K12 C600 (MS-1)
# From the text: as §1
# [12] = test system: Serratia marcescens IAM 1184 (MS-1); test: MIC by agar dilution method; format: cell-based; conditions: IAM1184
# From the text: as §1
# [13] = test system: Bacillus subtilis ATCC 6633 (MS-1); test: MIC by agar dilution method; format: cell-based; conditions: ATCC6633
# From the text: as §1
# [14] = test system: Salmonella typhimurium IID971 (MS-1); test: MIC by agar dilution method; format: cell-based; conditions: Salmonella enterica
# From the text: as §1
# [15] = test system: Pseudomonas aeruginosa IFO 3445 (MS-1); test: MIC by agar dilution method; format: cell-based; conditions: IFO3445
# From the text: as §1
# [16] = test system: Streptococcus pyogenes Cook (MS-1); test: MIC by agar dilution method; format: cell-based
# From the text: as §1
# [17] = test system: Klebsiella pneumoniae PCI-602 (MS-1); test: MIC by agar dilution method; format: cell-based
# From the text: as §1
# Bacillus cereus IAM 1729 = test: MIC by agar dilution method; format: cell-based; conditions: IAM1729
# From the text: as §1
# [18] = test system: Pseudomonas aeruginosa PAO 1 (MS-1); test: MIC by agar dilution method; format: cell-based
# From the text: as §1
# [19] = test system: Enterobacter aerogenes ATCC 13048 (MS-1); test: MIC by agar dilution method; format: cell-based; conditions: Klebsiella aerogenes, ATCC13048
# From the text: as §1
# [20] = test system: Salmonella paratyphi 1015 (MS-1); test: MIC by agar dilution method; format: cell-based; conditions: Salmonella enterica
# From the text: as §1
# [21] = test system: Pseudomonas aeruginosa NCTC 10490 (MS-1); test: MIC by agar dilution method; format: cell-based; conditions: NCTC10490
# From the text: as §1
# [22] = test system: Proteus vulgaris OX-19 (MS-1); test: MIC by agar dilution method; format: cell-based
# From the text: as §1
# [23] = test system: Staphylococcus aureus FDA 209PJC-1 (MS-1); test: MIC by agar dilution method; format: cell-based
# From the text: as §1
# [24] = test system: Escherichia coli NIHJ-JC-2 (MS-1); test: MIC by agar dilution method; format: cell-based; conditions: NIHJJC2, E. coli NIHJ-JC-2 (MS-1)
# From the text: as §1
# [25] = test system: Enterobacter cloacae 963 (MS-1); test: MIC by agar dilution method; format: cell-based
# From the text: as §1
# [26] = agar dilution, Micrococcus luteus ATCC 9341 (MS-1), read-out: MIC
# [27] = agar dilution, Proteus morganii IFO 3848 (MS-1), read-out: MIC
# [28] = agar dilution, S. aureus Terajima (MS-1), read-out: MIC
# [29] = agar dilution, S. aureus MS 353 (MS-1), read-out: MIC
# [30] = agar dilution, Salmonella enteritidis G 14 (MS-1), read-out: MIC
# [31] = agar dilution, Mycoplasma pneumoniae, read-out: MIC
# [32] = agar dilution, Proteus rettgeri IFO 3850 (MS-1), read-out: MIC
# [33] = agar dilution, Serratia marcescens IAM 1184 (MS-1), read-out: MIC
# [34] = agar dilution, Bacillus subtilis ATCC 6633 (MS-1), read-out: MIC
# [35] = agar dilution, Salmonella typhimurium IID971 (MS-1), read-out: MIC
# [36] = agar dilution, Pseudomonas aeruginosa IFO 3445 (MS-1), read-out: MIC
# [37] = agar dilution, Streptococcus pyogenes Cook (MS-1), read-out: MIC
# [38] = agar dilution, Klebsiella pneumoniae PCI-602 (MS-1), read-out: MIC
# [39] = agar dilution, Bacillus cereus IAM 1729, read-out: MIC
# [40] = agar dilution, Pseudomonas aeruginosa PAO 1 (MS-1), read-out: MIC
# [41] = agar dilution, Enterobacter aerogenes ATCC 13048 (MS-1), read-out: MIC
# [42] = agar dilution, Pseudomonas aeruginosa NCTC 10490 (MS-1), read-out: MIC
# [43] = agar dilution, Proteus vulgaris OX-19 (MS-1), read-out: MIC
# [44] = agar dilution, S. aureus FDA 209PJC-1 (MS-1), read-out: MIC
# [45] = agar dilution, Enterobacter cloacae 963 (MS-1), read-out: MIC
Structure (SMILES),MIC [1] [µg/mL],MIC [2] [µg/mL],"MIC [3, 26] [µg/mL]","MIC [4, 27] [µg/mL]",MIC [5] [µg/mL],"MIC [6, 28] [µg/mL]","MIC [7, 29] [µg/mL]",MIC [8] [µg/mL],"MIC [9, 30] [µg/mL]","MIC [10, 32] [µg/mL]",MIC [11] [µg/mL],"MIC [12, 33] [µg/mL]","MIC [13, 34] [µg/mL]","MIC [14, 35] [µg/mL]","MIC [15, 36] [µg/mL]","MIC [16, 37] [µg/mL]","MIC [17, 38] [µg/mL]",MIC (Bacillus cereus IAM 1729; [39]) [µg/mL],MIC [20] [µg/mL],MIC [24] [µg/mL],also measured
CCC1OC(=O)CC(O)C(C)C(OC2OC(C)C(OC3CC(C)(O)C(O)C(C)O3)C(N(C)C)C2O)C(CC=O)CC(C)C(=O)C=CC2(C)OC2C1C (stereo not drawn) [M 119-a],> 100,> 100,< 0.1,50,100,0.78,0.78,100,> 100,> 100,100,> 100,0.2,> 100,> 100,0.2,12.5,0.39,50,> 100,"Solubility (Solubility; in hexane, ether and water): insoluble; Solubility (Solubility; in methanol and chloroform): Soluble; MIC (Mycoplasma pneumoniae; [31]): 0.1 µg/mL; MIC [18, 40]: > 100 µg/mL; MIC [19, 41]: > 100 µg/mL; MIC [21, 42]: > 100 µg/mL; MIC [22, 43]: > 100 µg/mL; MIC [23, 44]: 0.2 µg/mL; MIC [25, 45]: > 100 µg/mL"
"CC[C@H]1OC(=O)[C@H](C)[C@@H](O[C@H]2C[C@@](C)(OC)[C@@H](O)[C@H](C)O2)[C@H](C)[C@@H](O[C@@H]2O[C@H](C)C[C@H](N(C)C)[C@H]2O)[C@](C)(O)C[C@@H](C)C(=O)[C@H](C)[C@@H](O)[C@]1(C)O [EM, erythromycin, reference compound]",> 100,> 100,–,–,50,–,–,50,–,–,50,–,–,–,–,–,–,–,25,100,MIC ([3]; Micrococcus luteus): < 0.1 µg/mL; MIC [4]: 25 µg/mL; MIC [6]: 0.2 µg/mL; MIC [7]: 0.2 µg/mL; MIC ([9]; ENTERITIDIS): 100 µg/mL; MIC (Mycoplasma pneumoniae; Mycoplasma): 0.1 µg/mL; MIC [10]: > 100 µg/mL; MIC ([12]; Serratia marcescens): 100 µg/mL; MIC ([13]; Bacillus subtilis): < 0.1 µg/mL; MIC [14]: 100 µg/mL; MIC ([15]; Pseudomonas aeruginosa): > 100 µg/mL; MIC ([16]; Streptococcus pyogenes): 0.2 µg/mL; MIC ([17]; Klebsiella pneumoniae): 6.25 µg/mL; MIC (Bacillus cereus IAM 1729; Bacillus cereus): 0.2 µg/mL; MIC ([18]; Pseudomonas aeruginosa): > 100 µg/mL; MIC [19]: 100 µg/mL; MIC ([21]; Pseudomonas aeruginosa): > 100 µg/mL; MIC ([22]; Proteus vulgaris): > 100 µg/mL; MIC [23]: 0.2 µg/mL; MIC ([25]; Enterobacter cloacae): > 100 µg/mL
CCC1OC(=O)CC(O)C(C)C(OC2OC(C)C(OC3CC(C)(O)C(O)C(C)O3)C(N(C)C)C2O)C(CC=O)CC(C)C(=O)C=CC2(C)OC2C1(C)O (stereo not drawn) [M 119-d],> 100,> 100,0.2,50,100,3.13,3.13,25,> 100,> 100,100,> 100,0.78,> 100,> 100,0.78,12.5,1.56,25,> 100,"Solubility (Solubility; in hexane, ether and water): insoluble; Solubility (Solubility; in methanol and chloroform): Soluble; MIC [18, 40]: > 100 µg/mL; MIC [19, 41]: 100 µg/mL; MIC [21, 42]: > 100 µg/mL; MIC [22, 43]: > 100 µg/mL; MIC [23, 44]: 0.78 µg/mL; MIC [25, 45]: > 100 µg/mL"
"CO[C@@H]1[C@@H](O[C@@H]2O[C@H](C)[C@@H](O[C@H]3C[C@@](C)(O)[C@@H](OC(=O)CC(C)C)[C@H](C)O3)[C@H](N(C)C)[C@H]2O)[C@@H](CC=O)C[C@@H](C)[C@@H](O)/C=C/C=C/C[C@@H](C)OC(=O)C[C@H]1OC(C)=O [JM, josamycin, reference compound]",> 100,> 100,< 0.1,> 100,> 100,0.78,0.78,> 100,> 100,> 100,> 100,> 100,0.39,> 100,> 100,0.2,12.5,0.39,100,> 100,"MIC (Mycoplasma pneumoniae; [31]): 0.2 µg/mL; MIC [18, 40]: > 100 µg/mL; MIC [19, 41]: > 100 µg/mL; MIC [21, 42]: > 100 µg/mL; MIC [22, 43]: > 100 µg/mL; MIC [23, 44]: 0.2 µg/mL; MIC [25, 45]: > 100 µg/mL"
